Source: patent US10065990B2, “Cyclic peptide compound, and preparation method, pharmaceutical composition and use thereof” (HANGZHOU GUANYU BIO-MEDICAL CO., LTD, priority 2013, dated 2018)
Like-named read-outs stand apart in the source and are kept apart here.

How the values were obtained:
[1] = system: BGC-823 (human gastric cancer cells); experiment: MTT cancer cell growth inhibition; format: cell-based; conditions: Homo sapiens, BGC-823, 72 h, MTT, 72 hours incubation; read-out: GI50 BG
Description: (§1) MTT assay principle is yellow MTT can penetrate membrane into the cell, succinic dehydrogenase of the mitochondria in living cells can make exogenous MTT reduction of insoluble in water of blue-violet acicular formazan for crystallization and deposition in the cell, crystallization can be dissolved dimethyl sulfoxide (DMSO) solution, detected its absorbance at 490 nm/570 nm wavelength by enzyme-linked immunosorbent assay, which can reflect the number of cells.
(§2) Using DMEM+10% FBS culture medium or using 1640+10% FBS culture, respectively.
(§3) a) Cells were seeded in 96-well plates with the inoculation of 1500/well, 190 μl/hole, 37° C., 5% of CO2 incubator overnight;
(§4) b) The next day each well was added 10 μl of different drugs. The final concentration of drug was 10^−5˜10^−10M, three parallel holes; 37° C., 5% CO2 culture incubator for 72 hours incubation;
(§5) c) Per well was added 20 μl 5 mg/ml of MTT, 37° C., 5% CO2 culture incubator for 4 hours incubation;
(§6) d) The supernatant was discarded. Each well was added 100 μl of DMSO and oscillation;
(§7) e) 570 nm readings. Calculate cell viability. GI50 calculation based on the results.

[2] = system: MDA-MB-231 (breast cancer cells); experiment: MTT cancer cell growth inhibition; format: cell-based
Description: as §1, §2, §3, §4, §5, §6, §7

[3] = system: N-87 (human gastric cancer cells); experiment: MTT cancer cell growth inhibition; format: cell-based; conditions: Homo sapiens, 72 h, MTT, 72 hours incubation, N-87 cells; read-out: GI50 N-87
Description: as §1, §2, §3, §4, §5, §6, §7

[4] = system: PANC-1 (Pac-1, human pancreatic cancer cells); experiment: MTT cancer cell growth inhibition; format: cell-based; conditions: Homo sapiens, PANC-1, 72 h, MTT, 72 hours incubation; read-out: GI50 PAN
Description: as §1, §2, §3, §4, §5, §6, §7

[5] = system: U937 (human leukemia cells); experiment: MTT cancer cell growth inhibition; format: cell-based; conditions: Homo sapiens, U-937, 72 h, MTT, 72 hours incubation; read-out: GI50 U93
Description: as §1, §2, §3, §4, §5, §6, §7

[6] = system: DU145 (human prostate cancer cells); experiment: MTT cancer cell growth inhibition; format: cell-based; conditions: MTT, 72 hours incubation, read-out: GI50 Du1
Description: as §1, §2, §3, §4, §5, §6, §7

[7] = system: HT1080 (human fibrosarcoma cells); experiment: MTT cancer cell growth inhibition; format: cell-based; conditions: MTT, 72 hours incubation, read-out: GI50 HT1
Description: as §1, §2, §3, §4, §5, §6, §7

[8] = system: MCF-7 (human breast cancer cells); experiment: MTT cancer cell growth inhibition; format: cell-based; conditions: Homo sapiens, MCF7, 72 h, 72 hours incubation, read-out: GI50 MCF
Description: as §1, §2, §3, §4, §5, §6, §7

[9] = system: Huh-7 (human hepatoma cells); experiment: MTT cancer cell growth inhibition; format: cell-based; conditions: Homo sapiens, Huh-7, 72 h, MTT, 72 hours incubation, Huh-7 cells; read-out: GI50 Huh-7
Description: as §1, §2, §3, §4, §5, §6, §7

[10] = system: lncap (prostate cancer cells); experiment: MTT cancer cell growth inhibition; format: cell-based; conditions: MTT, 72 hours incubation, read-out: GI50 lnca
Description: as §1, §2, §3, §4, §5, §6, §7

[11] = system: H1975 (non-small cell lung adenocarcinoma); experiment: MTT cancer cell growth inhibition; format: cell-based; conditions: Homo sapiens, NCI-H1975, 72 h, MTT, 72 hours incubation, H1975 cells; read-out: GI50 H1975
Description: as §1, §2, §3, §4, §5, §6, §7

[12] = system: HCC827 (human non-small cell lung cancer cells); experiment: MTT cancer cell growth inhibition; format: cell-based; conditions: Homo sapiens, HCC827, 72 h, MTT, 72 hours incubation, HCC827 cells; read-out: GI50 HCC827
Description: as §1, §2, §3, §4, §5, §6, §7

[13] = system: KBM5-T315I (human chronic myelogenous leukemia); experiment: MTT cancer cell growth inhibition; format: cell-based; conditions: MTT, 72 hours incubation, KBM5-T315I cells, read-out: GI50 KBM5-T315I
Description: as §1, §2, §3, §4, §5, §6, §7

[14] = system: SGC-7901 (human gastric cancer cells); experiment: MTT cancer cell growth inhibition; format: cell-based; conditions: Homo sapiens, SGC-7901, 72 h, MTT, 72 hours incubation, SGC-7901 cells; read-out: GI50 SGC-7901
Description: as §1, §2, §3, §4, §5, §6, §7

[15] = system: Hela (human cervical cancer cells); experiment: MTT cancer cell growth inhibition; format: cell-based; conditions: Homo sapiens, HeLa, 72 h, MTT, 72 hours incubation; read-out: GI50 Hela
Description: as §1, §2, §3, §4, §5, §6, §7

[16] = system: MOLT-4 (human acute lymphoblastic leukemia cells); experiment: MTT cancer cell growth inhibition; format: cell-based; conditions: MTT, 72 hours incubation, read-out: GI50 Mol
Description: as §1, §2, §3, §4, §5, §6, §7

[17] = system: Bel-7402 (human hepatoma cells); experiment: MTT cancer cell growth inhibition; format: cell-based; conditions: MTT, 72 hours incubation, Bel-7402 cells, read-out: GI50 Bel-7402
Description: as §1, §2, §3, §4, §5, §6, §7

[18] = system: K562 (human leukemia cells); experiment: MTT cancer cell growth inhibition; format: cell-based; conditions: MTT, 72 hours incubation, K562 cells, read-out: GI50 K562
Description: as §1, §2, §3, §4, §5, §6, §7

[19] = system: KBM-5 (human chronic myelogenous leukemia); experiment: MTT cancer cell growth inhibition; format: cell-based; conditions: Homo sapiens, KBM5, 72 h, MTT, 72 hours incubation, KBM-5 cells; read-out: GI50 KBM-5
Description: as §1, §2, §3, §4, §5, §6, §7

[20] = system: A549 (human lung cancer cells); experiment: MTT cancer cell growth inhibition; format: cell-based; conditions: MTT, 72 hours incubation, read-out: GI50 A54
Description: as §1, §2, §3, §4, §5, §6, §7

HDAC7 = target: T1, HDAC7 (Homo sapiens, UniProt Q8WUI4); experiment: HDAC biochemical activity measurement (fluorescent substrate deacetylation);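 further: fluorogenic deacetylation assay using acetyl-lysine substrate at 20 µM, enzyme and compound incubated 30 min at 37 °C, then developer added, fluorescence read at 360/460 nm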; conditions: HDAC7; 37° C. 30 minutes
T1 sequence (Q8WUI4 1-952): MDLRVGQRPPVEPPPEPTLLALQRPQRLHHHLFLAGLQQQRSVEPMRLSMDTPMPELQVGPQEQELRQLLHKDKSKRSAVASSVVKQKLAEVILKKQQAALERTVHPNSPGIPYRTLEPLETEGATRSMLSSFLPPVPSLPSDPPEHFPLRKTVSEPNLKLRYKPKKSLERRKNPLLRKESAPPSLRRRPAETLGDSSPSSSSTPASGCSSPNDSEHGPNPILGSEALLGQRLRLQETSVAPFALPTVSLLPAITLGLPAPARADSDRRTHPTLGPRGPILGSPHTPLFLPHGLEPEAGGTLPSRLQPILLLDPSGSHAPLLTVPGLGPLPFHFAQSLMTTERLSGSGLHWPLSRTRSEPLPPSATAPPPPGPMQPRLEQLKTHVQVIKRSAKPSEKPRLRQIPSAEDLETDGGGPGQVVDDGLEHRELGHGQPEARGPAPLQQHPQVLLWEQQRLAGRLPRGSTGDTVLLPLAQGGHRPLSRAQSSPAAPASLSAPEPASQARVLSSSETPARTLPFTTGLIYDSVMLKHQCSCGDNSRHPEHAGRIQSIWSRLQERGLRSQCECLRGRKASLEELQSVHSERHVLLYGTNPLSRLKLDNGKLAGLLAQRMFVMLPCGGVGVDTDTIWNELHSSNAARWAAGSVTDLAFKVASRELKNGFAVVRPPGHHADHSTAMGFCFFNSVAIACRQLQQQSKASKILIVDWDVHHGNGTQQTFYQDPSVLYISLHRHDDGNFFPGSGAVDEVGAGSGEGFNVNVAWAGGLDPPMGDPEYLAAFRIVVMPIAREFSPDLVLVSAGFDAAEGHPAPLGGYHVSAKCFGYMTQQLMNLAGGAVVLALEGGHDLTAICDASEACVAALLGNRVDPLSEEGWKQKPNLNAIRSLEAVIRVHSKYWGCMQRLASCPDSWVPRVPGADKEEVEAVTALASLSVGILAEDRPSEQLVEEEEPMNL

[21] = Homo sapiens, MDA-MB-231, 72 h, read-out: GI50 MDA-MB-231, MTT, 72 hours incubation, MDA-MB-231 cells

| SMILES | GI50 [1] | GI50 [2, 21] | GI50 [3] | GI50 [4] | GI50 [5] | GI50 ([6]; Homo sapiens, DU-145, 72 h) | GI50 ([7]; Homo sapiens, HT-1080, 72 h) | GI50 [8] | GI50 [9] | GI50 ([10]; Homo sapiens, LNCaP, 72 h) | GI50 [11] | GI50 [12] | GI50 ([13]; Homo sapiens, 72 h) | GI50 [14] | GI50 [15] | GI50 ([16]; Homo sapiens, MOLT-4, 72 h) | GI50 ([17]; Homo sapiens, Bel-7402, 72 h) | GI50 ([18]; Homo sapiens, K562, 72 h) | GI50 [19] | IC50 HDAC7 (HDAC7) | further results |
| --- | --- | --- | --- | --- | --- | --- | --- | --- | --- | --- | --- | --- | --- | --- | --- | --- | --- | --- | --- | --- | --- |
| C/C=C1\NC(=O)c2nc(ccc2F)CNC(=O)C[C@@H](/C=C/CCS)OC(=O)[C@H](Cc2ccc(O)cc2)NC1=O [Compound 128] | 0.07 µM | 0.055 µM | 0.035 µM | 0.13 µM | 0.05 µM | 0.05 µM | 0.07 µM | 0.05 µM | 0.049 µM | 0.1 µM | 0.023 µM | 0.039 µM | 0.053 µM | 0.023 µM | 0.04 µM | 0.02 µM | 0.053 µM | 0.073 µM | 0.041 µM | no activity | GI50 ([20]; Homo sapiens, A549, 72 h): 0.03 µM |
| C/C=C1\NC(=O)c2cc(F)cc(n2)CNC(=O)C[C@@H](/C=C/CCS)OC(=O)[C@H](Cc2ccc(O)cc2)NC1=O [Compound 129] | 0.03 µM | 0.041 µM | 0.021 µM | 0.05 µM | 0.01 µM | 0.03 µM | 0.13 µM | 0.03 µM | 0.038 µM | 0.07 µM | 0.033 µM | 0.022 µM | 0.042 µM | 0.033 µM | 0.04 µM | 0.06 µM | 0.041 µM | 0.042 µM | 0.035 µM | no activity | GI50 ([20]; Homo sapiens, A549, 72 h): 0.08 µM |
| C/C=C1\NC(=O)c2ccc(F)c(n2)CNC(=O)C[C@@H](/C=C/CCS)OC(=O)[C@H](Cc2ccc(O)cc2)NC1=O [Compound 130] | 0.05 µM | 0.038 µM | 0.058 µM | 0.04 µM | 0.03 µM | 0.03 µM | 0.1 µM | 0.07 µM | 0.041 µM | 0.02 µM | 0.042 µM | 0.054 µM | 0.011 µM | 0.042 µM | 0.13 µM | 0.03 µM | 0.032 µM | 0.028 µM | 0.023 µM | no activity | GI50 ([20]; Homo sapiens, A549, 72 h): 0.07 µM |
| C=C1NC(=O)c2cccc(n2)CNC(=O)C[C@@H](/C=C/CCS)OC(=O)[C@H](C(C)C)NC1=O [Compound 131] | 0.04 µM | 0.046 µM | 0.095 µM | 0.04 µM | 0.05 µM | 0.06 µM | 0.08 µM | 0.06 µM | 0.023 µM | 0.08 µM | 0.016 µM | 0.059 µM | 0.045 µM | 0.031 µM | 0.08 µM | 0.08 µM | 0.043 µM | 0.045 µM | 0.063 µM | no activity | GI50 ([20]; Homo sapiens, A549, 72 h): 0.05 µM |
| C=C1NC(=O)c2cc(F)cc(n2)CNC(=O)C[C@@H](/C=C/CCS)OC(=O)[C@H](C(C)C)NC1=O [Compound 132] | 0.04 µM |  | 0.057 µM | 0.07 µM | 0.04 µM |  |  | 0.1 µM | 0.026 µM |  | 0.028 µM | 0.052 µM |  | 0.028 µM | 0.02 µM |  |  |  | 0.024 µM | no activity | GI50 ([2]; read-out: GI50 MDA-MB-231, MTT, 72 hours incubation, MDA-MB-231 cells): 0.016 µM; GI50 [6]: 0.15 µM; GI50 [7]: 0.03 µM; GI50 [10]: 0.03 µM; GI50 [13]: 0.043 µM; GI50 [16]: 0.03 µM; GI50 [17]: 0.077 µM; GI50 [18]: 0.048 µM; GI50 [20]: 0.02 µM |
